This data set can be described thus: LogD determined by HPLC. Format: physicochemical.

Consider 39 compounds from patent EP4268824A1 (Manros Therapeutics, priority 2022, dated 2023).

Consider `CC(C)c1cnc2c(NCc3cccnc3)nc(N3CCC(O)C3)nn12` (stereo not drawn) [compound 77, 1-[7-Isopropyl-4-(3-pyridylmethylamino)imidazo[2,1-f][1,2,4]triazin-2-yl]pyrrolidin-3-ol], for which the chromatographic logD stood at 2.29.
The compound `Cc1cc(C)nc(CNc2nc(NCc3ccccc3)c3ncc(C(C)C)n3n2)n1` [compound 127, N4-Benzyl-N2-[(4,6-dimethylpyrimidin-2-yl)methyl]-7-isopropyl-imidazo[2,1-f][1,2,4]triazine-2,4-diamine] came in with a chromatographic logD of 3.28.
Next, `CC(C)c1cnc2c(NCc3ccccc3)nc(NC3CCC(F)(F)CC3)nn12` [compound 60, N4-Benzyl-N2-(4,4-difluorocyclohexyl)-7-isopropyl-imidazo[2,1-f][1,2,4]triazine-2,4-diamine]: 4.57.
Next, `CC(C)c1cnc2c(NCc3ccccc3)nc(Nc3ccccc3)nn12` [compound 114, N4-Benzyl-7-isopropyl-N2-phenyl-imidazo[2,1-f][1,2,4]triazine-2,4-diamine]: 4.64.
For the compound `COC1CCN(c2nc(NCc3ccccc3)c3ncc(C(C)C)n3n2)CC1` [compound 81, N-Benzyl-7-isopropyl-2-(4-methoxy-1-piperidyl)imidazo[2,1-f][1,2,4]triazin-4-amine], the chromatographic logD came out at 4.6.
Next, `CC(C)c1cnc2c(NCc3ccccc3)nc(NCc3ccncc3)nn12` [compound 125, N4-Benzyl-7-isopropyl-N2-(4-pyridylmethyl)imidazo[2,1-f][1,2,4]triazine-2,4-diamine]: 3.07; `COC1CCN(c2nc(NCc3ccccc3)c3ncc(C(C)C)n3n2)C1` (stereo not drawn) [compound 79, N-Benzyl-7-isopropyl-2-(3-methoxypyrrolidin-1-yl)imidazo[2,1-f][1,2,4]triazin-4-amine]: 4.42.
Consider `CC(C)c1cnc2c(NCc3ccccc3)nc(NCC3CCN(C)CC3)nn12` [compound 104], for which the chromatographic logD was 2.2.
In the case of `CC(C)c1cnc2c(NCc3ccccc3)nc(N3CCC(O)CC3)nn12` [compound 85, 1-[4-(Benzylamino)-7-isopropyl-imidazo[2,1-f][1,2,4]triazin-2-yl]piperidin-4-ol] it was 3.19; in that of `CO[C@H]1CCCC1Nc1nc(NCc2cccnc2)c2ncc(C(C)C)n2n1` (stereo partly drawn) [compound 68, 7-Isopropyl-N2-[(2S)-2-methoxycyclopentyl]-N4-(3-pyridylmethyl)imidazo[2,1-f][1,2,4]triazine-2,4-diamine], 3.04.
In the case of `CC(C)c1cnc2c(NCc3ccccc3)nc(NCc3ccccn3)nn12` [compound 123, N4-Benzyl-7-isopropyl-N2-(2-pyridylmethyl)imidazo[2,1-f][1,2,4]triazine-2,4-diamine] it was 3.26; in that of `CC(C)c1cnc2c(NCc3ccccc3)nc(NCc3cccnc3)nn12` [compound 124, N4-Benzyl-7-isopropyl-N2-(3-pyridylmethyl)imidazo[2,1-f][1,2,4]triazine-2,4-diamine], 3.12; in that of `CC(C)c1cnc2c(NCc3ccccc3)nc(NCC3CCCCC3)nn12` [compound 105, N4-Benzyl-N2-(cyclohexylmethyl)-7-isopropyl-imidazo[2,1-f][1,2,4]triazine-2,4-diamine], 5.9.
In turn, `CC(C)c1cnc2c(NCc3ccccc3)nc(NC3CCC[C@@H]3O)nn12` (stereo partly drawn) [compound 65, (1S)-2-[[4-(Benzylamino)-7-isopropyl-imidazo[2,1-f][1,2,4]triazin-2-yl]amino]cyclopentanol] displayed a chromatographic logD of 3.26.
With `CC(C)c1cnc2c(NCc3ccccc3)nc(NCCC3CCCN3C)nn12` (stereo not drawn) [compound 106, N4-Benzyl-7-isopropyl-N2-[2-(1-methylpyrrolidin-2-yl)ethyl]imidazo[2,1-f][1,2,4]triazine-2,4-diamine], the chromatographic logD was 2.16.
In the case of `COCCNc1nc(NCc2ccccc2)c2ncc(C(C)C)n2n1` [compound 1, N4-Benzyl-7-isopropyl-N2-(2-methoxyethyl)imidazo[2,1-f][1,2,4]triazine-2,4-diamine] it was 3.5; in that of `CC(C)c1cnc2c(NCc3ccccc3)nc(NC3CCN(C)CC3)nn12` [compound 61, N4-Benzyl-7-isopropyl-N2-(1-methyl-4-piperidyl)imidazo[2,1-f][1,2,4]triazine-2,4-diamine], 2.14.
In the case of `CC(C)c1cnc2c(NCc3cccnc3)nc(NC3CCC[C@@H]3O)nn12` (stereo partly drawn) [compound 66, (1S)-2-[[7-Isopropyl-4-(3-pyridylmethylamino)imidazo[2,1-f][1,2,4]triazin-2-yl]amino]cyclopentanol], the chromatographic logD is 2.36.
In the case of `CC(C)c1cnc2c(NCc3ccccc3)nc(NC(C)(C)CO)nn12` [compound 18, 2-[[4-(Benzylamino)-7-isopropyl-imidazo[2,1-f][1,2,4]triazin-2-yl]amino]-2-methyl-propan-1-ol] it was 3.32.
With `CC(C)c1cnc2c(NCc3ccccc3)nc(NC3CCCC[C@@H]3O)nn12` (stereo in doubt) [compound 62, (1S)-2-[[4-(Benzylamino)-7-isopropyl-imidazo[2,1-f][1,2,4]triazin-2-yl]amino]cyclohexanol], the chromatographic logD came to 3.6.
In the case of `CO[C@H]1CCCC1Nc1nc(NCc2ccccc2)c2ncc(C(C)C)n2n1` (stereo partly drawn) [compound 67, N4-Benzyl-7-isopropyl-N2-[(2S)-2-methoxycyclopentyl]imidazo[2,1-f][1,2,4]triazine-2,4-diamine] it was 4.25; in that of `CC(C)c1cnc2c(NCc3cccnc3)nc(N3CCSCC3)nn12` [compound 84, 7-Isopropyl-N-(3-pyridylmethyl)-2-thiomorpholino-imidazo[2,1-f][1,2,4]triazin-4-amine], 3.5; in that of `COC1CCN(c2nc(NCc3cccnc3)c3ncc(C(C)C)n3n2)C1` (stereo not drawn) [compound 80, 7-Isopropyl-2-(3-methoxypyrrolidin-1-yl)-N-(3-pyridylmethyl)imidazo[2,1f][1,2,4]triazin-4-amine], 3.06.
For `CC(C)c1cnc2c(NCc3ccccc3)nc(N3CCCCC3CCO)nn12` (stereo not drawn) [compound 87, 2-[1-[4-(Benzylamino)-7-isopropyl-imidazo[2,1-f][1,2,4]triazin-2-yl]-2-piperidyl]ethanol], the chromatographic logD was 2.71.
In the case of `CC(C)c1cnc2c(NCc3ccccc3)nc(Nc3nccn3C)nn12` [compound 109, N4-Benzyl-7-isopropyl-N2-(1-methylimidazol-2-yl)imidazo[2,1-f][1,2,4]triazine-2,4-diamine] it was 3.12.
In the case of `CC(C)c1cnc2c(NCc3ccccc3)nc(N3CC4(COC4)C3)nn12` [compound 78, N-Benzyl-7-isopropyl-2-(2-oxa-6-azaspiro[3.3]heptan-6-yl)imidazo[2,1-f][1,2,4]triazin-4-amine] it was 3.42; in that of `COC1CCN(c2nc(NCc3cccnc3)c3ncc(C(C)C)n3n2)CC1` [compound 82, 7-Isopropyl-2-(4-methoxy-1-piperidyl)-N-(3-pyridylmethyl)imidazo[2,1-f][1,2,4]triazin-4-amine], 3.15.
Regarding `CSCCNc1nc(NCc2ccccc2)c2ncc(C(C)C)n2n1` [compound 3, N4-Benzyl-7-isopropyl-N2-(2-methylsulfanylethyl)imidazo[2,1-f][1,2,4]triazine-2,4-diamine], the chromatographic logD came to 4.13.
Next, `CC(C)c1cnc2c(NCc3ccccc3)nc(NCc3nccn3C)nn12` [compound 116, N4-Benzyl-7-isopropyl-N2-[(1-methylimidazol-2-yl)methyl]imidazo[2,1-f][1,2,4]triazine-2,4-diamine]: 2.49; `COC1CCC(Nc2nc(NCc3ccccc3)c3ncc(C(C)C)n3n2)CC1` (stereo not drawn) [compound 64, N4-Benzyl-7-isopropyl-N2-(4-methoxycyclohexyl)imidazo[2,1-f][1,2,4]triazine-2,4-diamine]: 4.48; `CC(C)c1cnc2c(NCc3ccccc3)nc(NCc3cnn(C)c3)nn12` [compound 115, N4-Benzyl-7-isopropyl-N2-[(1-methylpyrazol-4-yl)methyl]imidazo[2,1-f][1,2,4]triazine-2,4-diamine]: 2.98.
For the compound `CC(C)c1cnc2c(NCc3ccccc3)nc(NCc3ccc(F)cc3)nn12` [compound 122, N4-Benzyl-N2-[(4-Fluorophenyl)methyl]-7-isopropyl-imidazo[2,1-f][1,2,4]triazine-2,4-diamine], the chromatographic logD came to 4.64.
In the case of `CC(C)c1cnc2c(NCc3ccccc3)nc(Nc3cnn(C)c3)nn12` [compound 110, N4-Benzyl-7-isopropyl-N2-(1-methylpyrazol-4-yl)imidazo[2,1-f][1,2,4]triazine-2,4-diamine], the chromatographic logD was 2.89.
Next, `CC(C)c1cnc2c(NCc3ccccc3)nc(NCc3ccccc3)nn12` [compound 121, N2,N4-Dibenzyl-7-isopropyl-imidazo[2,1-f][1,2,4]triazine-2,4-diamine]: 4.6; `CC(C)c1cnc2c(NCc3ccccc3)nc(NCCOc3ccccc3)nn12` [compound 2, N4-Benzyl-7-isopropyl-N2-(2-phenoxyethyl)imidazo[2,1-f][1,2,4]triazine-2,4-diamine]: 4.74.
Next, `CC(C)c1cnc2c(NCc3ccccc3)nc(NC3CCC(O)CC3)nn12` (stereo not drawn) [compound 63, 4-[[4-(Benzylamino)-7-isopropyl-imidazo[2,1-f][1,2,4]triazin-2-yl]amino]cyclohexanol]: 2.93; `CC(C)c1cnc2c(NCc3ccccc3)nc(N3CCSCC3)nn12` [compound 83, N-Benzyl-7-isopropyl-2-thiomorpholino-imidazo[2,1-f][1,2,4]triazin-4-amine]: 5.05; `CC(C)c1cnc2c(NCc3cccnc3)nc(N3CCC(O)CC3)nn12` [compound 86, 1-[7-Isopropyl-4-(3-pyridylmethylamino)imidazo[2,1-f][1,2,4]triazin-2-yl]piperidin-4-ol]: 2.3.
Compound `Cc1cnc(CNc2nc(NCc3ccccc3)c3ncc(C(C)C)n3n2)cn1` [compound 126] yielded a chromatographic logD of 3.

As usually defined, the chromatographic logD is a lipophilicity value derived from retention on a column. The low end stands for lower lipophilicity, the high end for higher lipophilicity.
